Data taken from article PMC6407917, “Identification of GSK3186899/DDD853651 as a Preclinical Development Candidate for the Treatment of Visceral Leishmaniasis” (Journal of Medicinal Chemistry, 2018).

Key:
Experiment in all cases: biochemical
Set-up in all cases: species or system HEK293/K-562/placenta mixed human extract; Kinobeads chemoproteomic competition binding, quantified by TMT LC-MS/MS, dose response up to 20 uM
LATS2 = LATS2 (Homo sapiens, UniProt Q9NRM7)
KDR = KDR (Homo sapiens, UniProt P35968)
ATM = ATM (Homo sapiens, UniProt Q13315)
PRKX = PRKX (Homo sapiens, UniProt P51817)
MAP3K4 = MAP3K4 (Homo sapiens, UniProt Q9Y6R4)
GSK3A = GSK3A (Homo sapiens, UniProt P49840)
MAP3K1 = MAP3K1 (Homo sapiens, UniProt Q13233)
EPHA3 = EPHA3 (Homo sapiens, UniProt P29320)
CSNK1D = CSNK1D (Homo sapiens, UniProt P48730)
BTK = BTK (Homo sapiens, UniProt Q06187)
STK35 = STK35 (Homo sapiens, UniProt Q8TDR2)
PRKCQ = PRKCQ (Homo sapiens, UniProt Q04759)
WNK1 = WNK1 (Homo sapiens, UniProt Q9H4A3)
RPS6KA5 = RPS6KA5 (Homo sapiens, UniProt O75582)
MAP2K5 = MAP2K5 (Homo sapiens, UniProt Q13163)
MASTL = MASTL (Homo sapiens, UniProt Q96GX5)
PKN2 = PKN2 (Homo sapiens, UniProt Q16513)
TYK2 = TYK2 (Homo sapiens, UniProt P29597)
SIK1 = SIK1 (Homo sapiens, UniProt P57059)
MAST2 = MAST2 (Homo sapiens, UniProt Q6P0Q8)
CAMK2D = CAMK2D (Homo sapiens, UniProt Q13557)

Measured: IC50

Sequence of MAP3K1 (Q13233 whole entry): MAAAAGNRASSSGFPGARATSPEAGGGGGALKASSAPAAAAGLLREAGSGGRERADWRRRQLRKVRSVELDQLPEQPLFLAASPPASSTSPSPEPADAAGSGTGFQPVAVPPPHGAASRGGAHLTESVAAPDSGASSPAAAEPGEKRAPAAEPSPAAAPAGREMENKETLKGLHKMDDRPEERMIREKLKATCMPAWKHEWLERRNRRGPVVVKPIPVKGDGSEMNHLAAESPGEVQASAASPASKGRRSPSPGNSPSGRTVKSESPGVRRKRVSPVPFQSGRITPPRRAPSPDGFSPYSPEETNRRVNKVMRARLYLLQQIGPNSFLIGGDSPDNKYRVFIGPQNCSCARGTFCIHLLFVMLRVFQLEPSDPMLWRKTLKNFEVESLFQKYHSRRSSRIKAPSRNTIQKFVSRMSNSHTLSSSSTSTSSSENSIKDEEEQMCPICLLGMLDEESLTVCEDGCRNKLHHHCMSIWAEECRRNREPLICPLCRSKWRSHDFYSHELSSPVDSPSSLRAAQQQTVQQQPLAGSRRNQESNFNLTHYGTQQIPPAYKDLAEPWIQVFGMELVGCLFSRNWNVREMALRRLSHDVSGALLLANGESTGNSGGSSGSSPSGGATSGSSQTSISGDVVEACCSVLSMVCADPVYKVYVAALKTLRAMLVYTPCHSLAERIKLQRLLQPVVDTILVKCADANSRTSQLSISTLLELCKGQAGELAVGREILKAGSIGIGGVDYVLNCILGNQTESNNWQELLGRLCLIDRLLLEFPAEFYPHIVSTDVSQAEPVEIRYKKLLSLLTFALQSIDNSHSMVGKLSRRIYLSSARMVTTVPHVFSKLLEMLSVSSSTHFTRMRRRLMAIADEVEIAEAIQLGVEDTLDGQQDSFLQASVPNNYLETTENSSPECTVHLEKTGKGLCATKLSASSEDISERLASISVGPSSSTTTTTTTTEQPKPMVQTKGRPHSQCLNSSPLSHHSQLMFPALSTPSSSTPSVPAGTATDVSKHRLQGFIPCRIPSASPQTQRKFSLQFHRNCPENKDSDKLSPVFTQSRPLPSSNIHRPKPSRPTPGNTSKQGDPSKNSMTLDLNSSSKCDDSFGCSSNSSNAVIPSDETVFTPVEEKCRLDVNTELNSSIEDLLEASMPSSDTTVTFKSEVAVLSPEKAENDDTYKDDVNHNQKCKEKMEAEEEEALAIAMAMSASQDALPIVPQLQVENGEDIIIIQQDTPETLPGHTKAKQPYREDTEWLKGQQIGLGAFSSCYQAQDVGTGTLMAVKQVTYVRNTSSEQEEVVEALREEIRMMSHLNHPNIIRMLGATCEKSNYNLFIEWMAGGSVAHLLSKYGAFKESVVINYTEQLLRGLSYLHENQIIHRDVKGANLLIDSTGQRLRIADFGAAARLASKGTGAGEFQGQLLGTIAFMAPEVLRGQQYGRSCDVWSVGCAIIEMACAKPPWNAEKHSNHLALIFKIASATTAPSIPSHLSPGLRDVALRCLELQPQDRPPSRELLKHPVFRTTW
Sequence of BTK (Q06187 whole entry): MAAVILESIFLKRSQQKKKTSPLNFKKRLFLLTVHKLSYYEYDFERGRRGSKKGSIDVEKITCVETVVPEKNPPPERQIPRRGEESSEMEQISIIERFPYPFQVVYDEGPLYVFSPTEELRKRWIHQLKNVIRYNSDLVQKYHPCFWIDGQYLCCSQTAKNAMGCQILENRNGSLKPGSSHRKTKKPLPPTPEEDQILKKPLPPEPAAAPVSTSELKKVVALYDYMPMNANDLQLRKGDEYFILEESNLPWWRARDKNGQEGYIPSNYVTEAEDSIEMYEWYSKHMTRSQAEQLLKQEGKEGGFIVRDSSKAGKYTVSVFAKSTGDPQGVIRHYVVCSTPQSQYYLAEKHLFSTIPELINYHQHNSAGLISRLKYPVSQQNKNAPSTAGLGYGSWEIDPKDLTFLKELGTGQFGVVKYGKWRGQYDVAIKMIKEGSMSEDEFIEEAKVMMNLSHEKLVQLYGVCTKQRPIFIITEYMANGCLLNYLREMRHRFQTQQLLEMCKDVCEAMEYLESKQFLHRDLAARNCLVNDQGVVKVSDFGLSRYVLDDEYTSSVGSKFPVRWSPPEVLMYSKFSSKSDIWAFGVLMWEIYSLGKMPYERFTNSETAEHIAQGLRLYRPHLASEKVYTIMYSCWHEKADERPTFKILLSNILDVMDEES
Sequence of CAMK2D (Q13557 whole entry): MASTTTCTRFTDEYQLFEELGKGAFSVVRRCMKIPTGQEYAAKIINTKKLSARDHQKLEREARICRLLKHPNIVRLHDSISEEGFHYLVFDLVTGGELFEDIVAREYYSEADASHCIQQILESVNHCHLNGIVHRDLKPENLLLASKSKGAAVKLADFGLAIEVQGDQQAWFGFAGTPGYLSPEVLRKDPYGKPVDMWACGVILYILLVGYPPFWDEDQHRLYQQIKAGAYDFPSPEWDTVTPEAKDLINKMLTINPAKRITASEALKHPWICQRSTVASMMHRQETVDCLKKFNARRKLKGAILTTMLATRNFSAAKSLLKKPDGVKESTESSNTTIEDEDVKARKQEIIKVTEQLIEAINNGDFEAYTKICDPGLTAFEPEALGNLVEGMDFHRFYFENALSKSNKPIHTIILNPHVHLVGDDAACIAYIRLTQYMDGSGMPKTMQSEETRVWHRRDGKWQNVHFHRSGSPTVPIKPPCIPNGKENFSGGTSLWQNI
Sequence of PRKCQ (Q04759 whole entry): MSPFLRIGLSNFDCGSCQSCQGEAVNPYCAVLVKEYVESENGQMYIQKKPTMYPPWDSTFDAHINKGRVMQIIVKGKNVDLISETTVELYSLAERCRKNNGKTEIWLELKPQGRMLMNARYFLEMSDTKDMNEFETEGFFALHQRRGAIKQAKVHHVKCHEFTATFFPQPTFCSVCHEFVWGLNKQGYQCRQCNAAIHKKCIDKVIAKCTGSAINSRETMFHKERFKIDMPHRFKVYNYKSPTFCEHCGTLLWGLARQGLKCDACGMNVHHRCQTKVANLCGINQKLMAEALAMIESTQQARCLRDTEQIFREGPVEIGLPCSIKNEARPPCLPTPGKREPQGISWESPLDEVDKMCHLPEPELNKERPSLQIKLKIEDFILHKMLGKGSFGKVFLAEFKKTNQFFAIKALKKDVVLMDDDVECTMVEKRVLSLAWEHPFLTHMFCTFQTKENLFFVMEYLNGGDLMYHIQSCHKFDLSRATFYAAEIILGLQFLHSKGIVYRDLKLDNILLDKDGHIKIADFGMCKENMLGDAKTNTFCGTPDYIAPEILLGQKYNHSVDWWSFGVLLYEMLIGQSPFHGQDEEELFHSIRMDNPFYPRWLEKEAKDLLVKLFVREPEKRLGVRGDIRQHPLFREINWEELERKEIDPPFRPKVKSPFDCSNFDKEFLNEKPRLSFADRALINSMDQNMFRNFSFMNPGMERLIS
Sequence of TYK2 (P29597 whole entry): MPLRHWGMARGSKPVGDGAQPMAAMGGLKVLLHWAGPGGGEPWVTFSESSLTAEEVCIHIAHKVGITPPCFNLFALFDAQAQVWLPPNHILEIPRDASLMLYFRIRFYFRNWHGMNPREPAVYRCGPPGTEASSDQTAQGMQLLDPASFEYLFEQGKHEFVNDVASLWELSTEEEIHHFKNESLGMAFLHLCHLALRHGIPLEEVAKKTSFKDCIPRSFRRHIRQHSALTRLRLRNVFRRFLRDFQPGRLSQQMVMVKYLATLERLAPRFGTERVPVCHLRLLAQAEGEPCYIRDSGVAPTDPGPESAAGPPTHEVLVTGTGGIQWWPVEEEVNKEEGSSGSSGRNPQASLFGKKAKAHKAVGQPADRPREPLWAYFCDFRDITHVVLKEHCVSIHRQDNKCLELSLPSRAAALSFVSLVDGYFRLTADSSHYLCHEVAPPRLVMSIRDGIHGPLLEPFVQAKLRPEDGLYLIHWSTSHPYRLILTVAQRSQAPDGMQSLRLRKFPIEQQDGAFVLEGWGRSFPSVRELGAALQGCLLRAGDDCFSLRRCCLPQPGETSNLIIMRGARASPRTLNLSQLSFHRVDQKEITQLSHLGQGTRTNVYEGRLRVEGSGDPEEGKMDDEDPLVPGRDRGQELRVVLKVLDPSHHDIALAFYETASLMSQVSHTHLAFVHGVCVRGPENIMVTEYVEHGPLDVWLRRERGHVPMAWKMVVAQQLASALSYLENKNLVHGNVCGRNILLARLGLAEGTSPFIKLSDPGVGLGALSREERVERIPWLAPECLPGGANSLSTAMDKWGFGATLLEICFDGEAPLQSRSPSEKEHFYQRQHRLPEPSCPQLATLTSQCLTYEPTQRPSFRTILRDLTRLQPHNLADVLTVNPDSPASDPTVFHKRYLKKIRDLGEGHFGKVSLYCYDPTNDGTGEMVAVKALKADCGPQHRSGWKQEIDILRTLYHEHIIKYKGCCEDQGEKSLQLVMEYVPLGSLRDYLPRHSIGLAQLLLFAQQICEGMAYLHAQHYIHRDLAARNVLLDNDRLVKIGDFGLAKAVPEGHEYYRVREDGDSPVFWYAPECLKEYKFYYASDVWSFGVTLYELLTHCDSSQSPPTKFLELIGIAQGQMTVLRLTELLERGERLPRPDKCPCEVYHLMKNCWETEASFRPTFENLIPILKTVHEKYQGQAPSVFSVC
Sequence of MAP2K5 (Q13163 whole entry): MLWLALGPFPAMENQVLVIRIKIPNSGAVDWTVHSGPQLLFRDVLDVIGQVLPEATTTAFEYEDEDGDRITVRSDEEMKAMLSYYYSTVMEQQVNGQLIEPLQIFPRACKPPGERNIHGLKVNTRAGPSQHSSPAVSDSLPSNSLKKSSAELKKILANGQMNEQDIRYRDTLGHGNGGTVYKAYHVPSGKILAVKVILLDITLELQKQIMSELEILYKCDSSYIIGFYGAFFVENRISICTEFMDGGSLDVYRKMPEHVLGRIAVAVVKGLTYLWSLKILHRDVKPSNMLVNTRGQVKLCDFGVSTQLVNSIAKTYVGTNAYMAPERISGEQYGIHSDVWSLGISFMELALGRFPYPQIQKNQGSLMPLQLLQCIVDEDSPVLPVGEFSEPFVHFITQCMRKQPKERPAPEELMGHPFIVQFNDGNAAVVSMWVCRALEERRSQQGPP

COc1ccccc1-c1n[nH]c2nc(N[C@H]3CC[C@H](NS(=O)(=O)CCC(F)(F)F)CC3)nc(OC)c12 [compound 31, 3,3,3-Trifluoro-N-(trans-4-((4-methoxy-3-(2-methoxyphenyl)-1H-pyrazolo[3,4-d]pyrimidin-6-yl)amino)cyclohexyl)propane-1-sulfonamide]
≥ 20 µM: all assays above
